# Assay results: patent publication US20040005537A1, “Method of identifying toxic agents using differential gene expression” (priority 2000, published 2004)
# Experiments:
# [1] = grouping used to generate the distinguishing gene profiles; cited from earlier work
# rat heart tissue = test: GENECALLING differential gene expression analysis after dosing of serotonin modulating agents; type: in vivo, Sprague Dawley rats
# Summary of the method: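 GENECALLING profiling of cDNA from total RNA, keeping gene fragments modulated beyond ±1.5-fold. Tissue collected 24 h after final dosing of serotonin modulating agents; control rats received sterile water or canola oil.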
structure (smiles),measurement,setting,value
CNS(=O)(=O)Cc1ccc2[nH]cc(CCN(C)C)c2c1 [sumatriptan],classification as cardiotoxic or noncardiotoxic serotonin modulating agent,[1],noncardiotoxic
same,"Effects on Transcription Level: Novel gene fragment, 524 bp, 86% SI to mouse F-box protein FBX6b [AF176526]",rat heart tissue; CARDIOTOX 1,+1.5 fold
same,"Effects on Transcription Level: Novel gene fragment, 306 bp, 91% SI to mouse low density lipoprotein receptor related protein 4 [AB013874]",rat heart tissue; CARDIOTOX 2,−1.6 fold
same,"Effects on Transcription Level: Novel gene fragment, 540 bp, 97% SI to mouse skeletal muscle alpha-actin [X03766]",rat heart tissue; CARDIOTOX 3,+2.4 fold
same,"Effects on Transcription Level: Novel gene fragment, 80 bp",rat heart tissue; CARDIOTOX 4,−1.4 fold
same,"Effects on Transcription Level: Novel gene fragment, 957 bp, 99% SI to kidney injury associated moleculer HW036 [V80591]",rat heart tissue; CARDIOTOX 5,−1.6 fold
same,"Effects on Transcription Level: Novel gene fragment, 282 bp, 85% SI to human KIAA1515 protein [AB040948]",rat heart tissue; CARDIOTOX 6,−1.7 fold
same,"Effects on Transcription Level: Novel gene fragment, 405 bp, 88% SI to human 2-oxoglutarate dehydrogenase [D10523]",rat heart tissue; CARDIOTOX 7,+1.5 fold
same,Effects on Transcription Level: UCP2,"rat heart tissue; CARDIOTOX 8, GenBank AB010743",−1.6 fold
same,Effects on Transcription Level: Plasma membrane Ca2 + ATPase-isoform 1,"rat heart tissue; CARDIOTOX 9, GenBank J03753",−1.6 fold
same,"Effects on Transcription Level: Novel gene fragment, 242 bp, 97% SI to mouse HSP86 heat-shock protein [X16857]",rat heart tissue; CARDIOTOX 10,+1.4 fold
same,"Effects on Transcription Level: Novel gene fragment, 280 bp, 65% SI to human TRF1-interacting, ankyrin-related ADP-ribose polymerase [AF082556]",rat heart tissue; CARDIOTOX 11,+1.4 fold
same,"Effects on Transcription Level: Novel gene fragment, 348 bp, 88% SI to mouse Sec61 protein complex gamma subunit [U11027]",rat heart tissue; CARDIOTOX 12,+1.3 fold
same,"Effects on Transcription Level: Novel gene fragment 553 bp, 93% SI to mouse Sid329 [AB024984]",rat heart tissue; CARDIOTOX 13,+1.4 fold
same,Effects on Transcription Level: Kruppel-like transcription factor,"rat heart tissue; CARDIOTOX 14, GenBank AB020759",+1.3 fold
same,Effects on Transcription Level: Ribosomal protein L3,"rat heart tissue; CARDIOTOX 15, GenBank X62166",+1.4 fold
same,Effects on Transcription Level: Glucose-regulated protein (GRP) 75,"rat heart tissue; CARDIOTOX 16, GenBank S78556",+1.4 fold
same,Effects on Transcription Level: Immunoglobulin heavy chain binding protein (BiP),"rat heart tissue; CARDIOTOX 17, GenBank M14050",+1.4 fold
same,Effects on Transcription Level: Membrane-spannining proteoglycan NG2,"rat heart tissue; CARDIOTOX 18, GenBank X56541",−1.5 fold
same,"Effects on Transcription Level: Novel gene fragment, 1294 bp, 96% SI to mouse Sui 1 (elF) homolog [AF129888]",rat heart tissue; CARDIOTOX 19,+1.6 fold
same,"Effects on Transcription Level: Novel gene fragment, 723 bp, 85% SI to human translation initiation factor elF3 p40 subunit [U54559]",rat heart tissue; CARDIOTOX 20,+1.6 fold
same,"Effects on Transcription Level: Novel gene fragment, 1324 bp, 76% SI to human flavoprotein subunit of complex II [D30648]",rat heart tissue; CARDIOTOX 21,+1.5 fold
same,"Effects on Transcription Level: Novel gene fragment, 852 bp, 81% SI to human vacuolar proton-ATPase subunit M9.2 [Y15286]",rat heart tissue; CARDIOTOX 22,+1.5 fold
same,"Effects on Transcription Level: Novel gene fragment, 178 bp, 91% SI to mouse myosin light chain-2 isoform MLC-2a [S70785]",rat heart tissue; CARDIOTOX 23,+1.4 fold
same,"Effects on Transcription Level: Novel gene fragment, 167 bp, 90% SI to mouse Rab20 [X80332]",rat heart tissue; CARDIOTOX 24,+1.9 fold
same,"Effects on Transcription Level: Novel gene fragment, 1070 bp, 80% SI to human muscle-specific protein [AF249873]",rat heart tissue; CARDIOTOX 25,+1.5 fold
same,"Effects on Transcription Level: Novel gene fragment, 1143 bp, 82% SI to human sarcoma amplified sequence (SAS) [U01160]",rat heart tissue; CARDIOTOX 26,+1.7 fold
same,"Effects on Transcription Level: Novel gene fragment, 74 bp,75% SI to human secreted protein [X30160] (from patent database)/[X97578] (from patent database)/potential cytokine)",rat heart tissue; CARDIOTOX 27,+1.5 fold
same,"Effects on Transcription Level: Novel gene fragment, 408 bp, 90% SI to human CGI-07 protein [AF132941]",rat heart tissue; CARDIOTOX 28,+1.6 fold
same,"Effects on Transcription Level: Novel gene fragment, 618 bp, 95% SI to rat progression related cDNA, ZNPE-120 3′ end partial sequence [patent database X90805]",rat heart tissue; CARDIOTOX 29,+1.5 fold
same,"Effects on Transcription Level: Novel gene fragment, 717 bp",rat heart tissue; CARDIOTOX 30,+1.5 fold
same,"Effects on Transcription Level: Novel gene fragment, 546 bp",rat heart tissue; CARDIOTOX 31,+1.8 fold
same,"Effects on Transcription Level: Novel gene fragment, 920 bp, 91% SI to human HSPC061 [AF161546]",rat heart tissue; CARDIOTOX 32,+1.5 fold
same,"Effects on Transcription Level: Novel gene fragment, 203 bp, 92% SI to rabbit sarcoplasmic reticulum glycoprotein [J04480]",rat heart tissue; CARDIOTOX 33,−1.7 fold
same,"Effects on Transcription Level: Novel gene fragment, 178 bp, 68% SI to mouse IgG receptor (beta-Fc-gamma-RII)[M63159]",rat heart tissue; CARDIOTOX 34,+1.4 fold
same,Effects on Transcription Level: Ribosomal protein L6,"rat heart tissue; CARDIOTOX 35, GenBank X87107",+1.6 fold
same,Effects on Transcription Level: CAP2 protein (adenylyl cyclase-associated protein 2),"rat heart tissue; CARDIOTOX 36, GenBank U31935",+2.0 fold
same,Effects on Transcription Level: Alpha-platelet-derived growth factor receptor,"rat heart tissue; CARDIOTOX 37, GenBank M63837",+1.6 fold
same,Effects on Transcription Level: Rab GD1 alpha protein,"rat heart tissue; CARDIOTOX 38, GenBank X74402",−1.6 fold
same,Effects on Transcription Level: PKC-zeta-interacting protein,"rat heart tissue; CARDIOTOX 39, GenBank Y08355",+1.6 fold
same,Effects on Transcription Level: ERK or MAP kinase,"rat heart tissue; CARDIOTOX 40, GenBank X65198",+1.5 fold
same,Effects on Transcription Level: Peroxisomal multifunctional enzyme type II,"rat heart tissue; CARDIOTOX 41, GenBank U37486",+1.5 fold
same,Effects on Transcription Level: HBP23 (heme-binding protein 23 kDa),"rat heart tissue; CARDIOTOX 42, GenBank D30035",+1.7 fold
same,Effects on Transcription Level: Caveolae-associated protein,"rat heart tissue; CARDIOTOX 43, GenBank U90725",+3.1 fold
same,Effects on Transcription Level: Prenylated rab acceptor 1 (PRA1),"rat heart tissue; CARDIOTOX 44, GenBank AF025506",+1.5 fold
same,"Effects on Transcription Level: Novel gene fragment, 337 bp, 88% SI to rabbit cardiac ryanodine receptor (RyR-2)[U50465]",rat heart tissue; CARDIOTOX 45,−1.5 fold
same,"Effects on Transcription Level: Novel gene fragment, 81 bp, 85% SI to human titin [X90568]",rat heart tissue; CARDIOTOX 46,−2.2 fold
same,"Effects on Transcription Level: Novel gene fragment, 428 bp, 86% SI to human titin [X90568]",rat heart tissue; CARDIOTOX 47,−2.0 fold
same,"Effects on Transcription Level: Novel gene fragment, 374 bp, 88% SI to human titin [X90568]",rat heart tissue; CARDIOTOX 48,−2.3 fold
same,"Effects on Transcription Level: Novel gene fragment, 428 bp, 85% SI to human titin [90568]",rat heart tissue; CARDIOTOX 49,−2.2 fold
same,"Effects on Transcription Level: Novel gene fragment, 1216 bp, 93% SI to mouse mircotubule-associated protein (MAP) 1B protein [AF115776]",rat heart tissue; CARDIOTOX 50,1 fold
same,"Effects on Transcription Level: Novel gene fragment, 1115 bp, 83% SI to human KIAA0549 protein [AB011121]",rat heart tissue; CARDIOTOX 51,−2.1 fold
same,"Effects on Transcription Level: Novel gene fragment, 153 bp",rat heart tissue; CARDIOTOX 52,−1.7 fold
same,"Effects on Transcription Level: Novel gene fragment, 89 bp, 93% SI to human putative glialblastoma cell differentiation-related protein (GBDR1) [AF068195]",rat heart tissue; CARDIOTOX 53,+1.6 fold
same,Effects on Transcription Level: Rho-associated kinase beta,"rat heart tissue; CARDIOTOX 54, GenBank U61266",−1.10 fold
same,Effects on Transcription Level: Adenylate kinase 3,"rat heart tissue; CARDIOTOX 55, GenBank D13062",+1.5 fold
same,Effects on Transcription Level: Amyloid beta-peptide binding protein,"rat heart tissue; CARDIOTOX 56, GenBank AF049878",+1.5 fold
same,Effects on Transcription Level: Mitochondrial adenine nuleotide translocator,"rat heart tissue; CARDIOTOX 57, GenBank D12771",+1.5 fold
same,"Effects on Transcription Level: Novel gene fragment, 710 bp, 94% SI to mouse chromatin structural protein homolog Supt5 hp (Supt5 h)[U88539]",rat heart tissue; CARDIOTOX 58,+3.0 fold
same,"Effects on Transcription Level: Novel gene fragment, 186 bp, 66% SI to human N-acetylglucosaminyltransferase 1 (GlcNAc-TI)[M55621]",rat heart tissue; CARDIOTOX 60,−1.8 fold
same,"Effects on Transcription Level: Novel gene fragment, 238 bp, 95% SI to mouse MAP kinase-activated protein kinase 2 [X76850]",rat heart tissue; CARDIOTOX 61,−2.7 fold
same,"Effects on Transcription Level: Novel gene fragment, 173 bp, 70% SI to G protein-coupled receptor kinase GRK4 [X97568]",rat heart tissue; CARDIOTOX 62,−6.11 fold
same,"Effects on Transcription Level: Novel gene fragment, 133 bp, 77% SI to human apoptosis related protein hSARP3 [patent database: V19114]",rat heart tissue; CARDIOTOX 63,−3.2 fold
same,"Effects on Transcription Level: Novel gene fragment, 477 bp, 98% SI to peroxisomal phytanoyl-CoA hydroxylase (PHYH) [AF121345]",rat heart tissue; CARDIOTOX 64,+5.1 fold
same,"Effects on Transcription Level: Novel gene fragment, 413 bp, 95% SI to mouse dihydrolipoamide dehydrogenase (Dld) [U73445]",rat heart tissue; CARDIOTOX 65,+1.10 fold
same,"Effects on Transcription Level: Novel gene fragment, 726 bp, 76% SI to human succinate dehydrogenase flavoprotein subunit (SDH) [L21936]",rat heart tissue; CARDIOTOX 66,−4.1 fold
same,"Effects on Transcription Level: Novel gene fragment, 440 bp, 92% SI to mouse cytochrome c oxidase Vllc [X52940]",rat heart tissue; CARDIOTOX 67,+3.7 fold
same,"Effects on Transcription Level: Novel gene fragment, 276 bp, 80% SI to human titin [X90568]",rat heart tissue; CARDIOTOX 68,−11.10 fold
same,"Effects on Transcription Level: Novel gene fragment, 149 bp, 70% SI to human titin [X90568]",rat heart tissue; CARDIOTOX 69,−5.6 fold
same,"Effects on Transcription Level: Novel gene fragment, 467 bp, 94% SI to mouse gelsolin [J04953]",rat heart tissue; CARDIOTOX 70,−3.2 fold
